Calls of active or inactive are those of the source. No rule for the calls is given here. Some results are limits rather than exact numbers.

The assay is described as follows: non-covalent RecA intein splicing inhibitors, dose response, biochemical, cell-free, fluorescence, secondary screen (AID 449750).
The AC50 is the concentration at which the activity in the assay is half-maximal. Take `O=C(CSc1nc2ccccc2nc1SCC(=O)N1CCOCC1)N1CCOCC1`: the AC50 was > 38 µM (inactive).

Turning to `Cc1cccc(C)c1-n1cccc1/C=C1\SC(=S)N(c2cccc(C(=O)O)c2)C1=O`, the AC50 was 7.18 µM.

As for `CCCCCc1cc(=O)oc2c(C(CCN3CCCC(C)C3)c3ccc(N(C)C)cc3)c(OC)cc(OC)c12` (centres undefined), the AC50 was > 38 µM (inactive).

As for `Cc1[nH]nc2c1C(c1ccco1)C(C#N)=C(N)O2` (centres undefined), the AC50 is > 38 µM (inactive).

Regarding `COc1ccc2nc(SCC(=O)NN)cc(C)c2c1`, the AC50 is > 38 µM (inactive).

As for `Clc1ccc(CSC(Cn2ccnc2)c2ccc(Cl)cc2Cl)cc1` (centres undefined), the AC50 is 8.47 µM.

Consider `CCCc1noc2c1C(c1ccoc1)C(C#N)=C(N)N2` (centres undefined), for which the AC50 was > 38 µM (inactive).

In the case of `O=c1cc(-c2ccc(Cl)c(Cl)c2)[nH][nH]1`, the AC50 was 8.07 µM.

As to `Nc1nn2c(-c3ccccc3)cc(=O)[nH]c2c1N=Nc1ccc(O)cc1`, the AC50 was > 38 µM (inactive).

With `Cc1ccc(S(=O)(=O)/N=C2\C=C(Nc3cccc(C(=O)O)c3)C(=O)c3ccccc32)c(C)c1`, the AC50 is > 38 µM (inactive).

For the compound `COc1ccc(/C=C2/SC(=S)N(CCCC(=O)Nc3cccc(O)c3)C2=O)cc1`, the AC50 was > 38 µM (inactive).

Regarding `Oc1ccc(C=Nc2ccc3ncccc3c2)c(O)c1`, the AC50 is 3.75 µM.

Regarding `CCOC(=O)c1ccc(-n2[nH]c(-c3ccccc3)cc2=O)cc1`, the AC50 is 5.45 µM.

Turning to `CN1CCN(Cc2cc(=O)oc3ccc(Cl)cc23)CC1`, the AC50 is > 38 µM (inactive).

For the compound `CC(C)(C)c1[nH]nc2c1C(c1ccco1)C(C#N)=C(N)O2` (centres undefined), the AC50 is 38.8 µM.

Turning to `CCOC(=O)C1=C(C)NC2(O)c3ccccc3C(=O)C12O` (centres undefined), the AC50 is 7.53 µM.

`O=C1C(Cl)=C(NS(=O)(=O)c2ccc([N+](=O)[O-])cc2)C(=O)c2ccccc21`: the half-maximal activity concentration (AC50) is 10.3 µM.

As for `CC(=O)Oc1ccc2c(=O)oc(-c3ccccc3C)nc2c1`, the AC50 is > 38 µM (inactive).

As to `c1ccc(-c2ccc(C3CCCN3)cc2)cc1` (centres undefined), the AC50 is > 38 µM (inactive).

`CCCSc1cc(NCCOC(=O)CCC)c([N+](=O)[O-])c2nonc12`: the AC50 was > 38 µM (inactive).

Consider `CSc1nc(-c2ccco2)nn1C(=O)c1cccs1`, for which the AC50 was > 38 µM (inactive).

Consider `CC1=NN(c2ccccc2)C(=O)/C1=C/c1cccs1`, for which the AC50 was 9.94 µM.

Consider `Clc1ccc(-c2nnc(Sc3nc4ccccc4o3)c3ccccc23)cc1`, for which the AC50 is 7.15 µM.

For `COc1ccc(C(=O)/C=C/Sc2nc3ccccc3o2)cc1`, the AC50 was 38.6 µM.

In the case of `CC(=O)C1=C(c2ccc(Br)cc2)C(=O)c2ccccc2C1=O`, the AC50 is 7.18 µM.

In the case of `COc1ccc(C(c2c(C)[nH][nH]c2=O)c2c(C)[nH][nH]c2=O)cc1Br`, the AC50 is 11.2 µM.

For the compound `CC1=NN(c2nc(-c3ccccc3)cs2)C(=O)C1`, the AC50 was 18.8 µM.

In the case of `CC(NC(=O)COC(=O)c1cc(NS(=O)(=O)c2ccc(Cl)c([N+](=O)[O-])c2)ccc1O)C1CC2CCC1C2` (centres undefined), the AC50 is 1.67 µM.

With `CC(C)OC(=O)CN1C(=O)C(=O)c2ccccc21`, the AC50 was 37.2 µM.

As for `CCCCCCn1c(N2CCC(C(N)=O)CC2)nc2c1c(=O)n(C)c(=O)n2C`, the AC50 is > 38 µM (inactive).

Turning to `COc1cc(C(c2c(C)[nH][nH]c2=O)c2c(C)[nH][nH]c2=O)ccc1OS(=O)(=O)c1ccccc1`, the AC50 is 9.54 µM.

In the case of `O=C1C(=O)c2ccccc2C([O-])=C1[n+]1ccccc1`, the AC50 is 28.5 µM.

Turning to `O=C(Cc1cc(=O)[nH][nH]1)N/N=C/c1ccccc1Cl`, the AC50 was 15.8 µM.

With `ClC(Cl)(Cl)c1nc2ccccc2n2nncc12`, the AC50 is > 38 µM (inactive).

For the compound `Cc1ccccc1N(Cc1cc(=O)[nH]c2ccccc12)C(=O)CCl`, the AC50 was 8.32 µM.

For `COC(=O)c1c(NC(=O)/C=C/C(=O)O)sc(C)c1-c1ccc(C)c(C)c1`, the AC50 is 26.5 µM.

For the compound `CC1=NN(c2ccccc2)C(=O)/C1=C\c1ccc(Oc2ccc([N+](=O)[O-])cc2[N+](=O)[O-])cc1`, the AC50 is 3.48 µM.

`COc1ccc(CNC(=O)c2nc(S(=O)(=O)Cc3ccccc3)ncc2Cl)cc1`: the AC50 is > 38 µM (inactive).

For the compound `Oc1cc(O)c2c(c1)O[C@H](c1ccc(O)c(O)c1)[C@@H](O)C2`, the AC50 is > 38 µM (inactive).

Turning to `N#CCCn1[nH]c(-c2ccccc2)cc1=O`, the AC50 was 8.16 µM.

For the compound `O=C(c1c[nH]c(C(=O)C(Cl)(Cl)Cl)c1)c1ccccc1Br`, the AC50 was 24.8 µM.

Turning to `Cc1ccc2nc(/C(C#N)=C\c3ccc([N+](=O)[O-])o3)[nH]c2c1`, the AC50 is > 38 µM (inactive).

As for `N#C/C(=C/c1ccc2c(c1)OCO2)C(=O)Nc1ccc(O)cc1`, the AC50 was > 38 µM (inactive).

On to `Cc1[nH]n(-c2ccccc2)c(=O)c1C(C[N+](=O)[O-])c1ccccc1Cl` (centres undefined), for which the AC50 is 7.38 µM.

As to `CC(C)(C)Nc1nc(Cl)nc(N(C#N)CN2C(=O)c3ccccc3S2(=O)=O)n1`, the AC50 is > 38 µM (inactive).

For the compound `CCOc1ccc2c(c1)-c1c(ssc1=S)C(C)(C)N2`, the AC50 was > 38 µM (inactive).

As to `O=S(=O)(c1ccccc1)c1ncc(C(F)(F)F)cc1Cl`, the AC50 was > 38 µM (inactive).

Consider `O=[N+]([O-])c1cc(O)c2ncccc2c1`, for which the AC50 was 8.43 µM.

For the compound `Oc1c(C=NCc2ccc(F)cc2)[nH]c2ccc(Br)c(Cl)c12`, the AC50 was 30.8 µM.

On to `CC1(N2CCOCC2)CC2(O)C(=[N+]1[O-])CCc1nonc12` (centres undefined), for which the AC50 was 36.5 µM.

For the compound `CCCCCCCCCCC[N+](C)(C)CC/C=C1/c2ccccc2Sc2ccc(Cl)cc21`, the AC50 was 4.77 µM.

Take `COc1ccc(NC(=O)Cn2ncc(Cl)c(Cl)c2=O)cc1S(=O)(=O)N1CCOCC1`: the AC50 is > 38 µM (inactive).

Turning to `Cc1cc(C)cc(Cn2ncc(Cl)c(Cl)c2=O)c1`, the concentration at half-maximal activity (AC50) was 1.38 µM.

Take `Cn1c(=O)c([N+](=O)[O-])c(-n2cnc3ccccc32)c2ccccc21`: the AC50 was > 38 µM (inactive).

Turning to `Cc1ccc(C2CC(c3cccs3)=NN2C(=O)CCl)cc1` (centres undefined), the AC50 is 1.68 µM.

As to `[O-]C1=N/[N+](=C/c2ccc(Cl)c(Cl)c2)CC1`, the AC50 is > 38 µM (inactive).

For `COc1ccc(OCc2cc(C(=O)N3CCCC(OC)C3)no2)c2ccccc12` (centres undefined), the AC50 was > 38 µM (inactive).

Take `O=C1C=C(NCCN2CCOCC2)C(=O)c2cnccc21`: the AC50 was 1.54 µM.

Turning to `CC(=O)NC1C(=O)N(CCN2CCOCC2)c2ccc(C)cc21` (centres undefined), the AC50 is 21.6 µM.

As to `CCOC(=O)N1CCC(c2cc(=O)n(-c3ccccc3)[nH]2)CC1`, the AC50 is 6.18 µM.

On to `Cc1[nH][nH]c(=O)c1C(c1ccccc1[N+](=O)[O-])C(C#N)C#N` (centres undefined), for which the AC50 is > 38 µM (inactive).

As to `CCOc1ccc(C(c2c(C)[nH][nH]c2=O)c2c(C)[nH][nH]c2=O)cc1OCC`, the AC50 was 9.1 µM.

As to `Cc1[nH][nH]c(=O)c1C(c1ccc(-c2cccc(Cl)c2)o1)c1c(C)[nH][nH]c1=O`, the AC50 was > 38 µM (inactive).

With `c1ccc2[nH]c3cc4ncnc4cc3nc2c1`, the AC50 was 37.5 µM.

Consider `O=C(Cc1cc(=O)[nH][nH]1)N/N=C/c1c(F)cccc1Cl`, for which the AC50 is 30.7 µM.

For the compound `COc1ccccc1NC1=C(N2CCCCC2)C(=O)c2ccccc2C1=O`, the AC50 is 8.09 µM.

With `NNc1n[nH]c(=S)n1N`, the AC50 was 32.3 µM.

As for `COc1ccc(NC(=O)/C(Cl)=C(/Cl)S(=O)Cc2ccccc2)cn1` (centres undefined), the AC50 is > 38 µM (inactive).

For the compound `COc1cccc(-n2nnnc2S(C)(=O)=O)c1`, the AC50 was > 38 µM (inactive).

Turning to `N=C(N)SCc1cn(-c2ccccc2)nc1-c1ccc(Br)cc1`, the AC50 was 16.2 µM.

As to `Cc1ccc(S[C@@H](CCN2CC[C@H](C)CCC2=O)c2ccccc2)cc1`, the concentration at half-maximal activity (AC50) was 15.2 µM.

For `COC(=O)Cc1[nH]nc2c1C(c1c[nH]c3ccccc13)C(C#N)=C(N)O2` (centres undefined), the AC50 is > 38 µM (inactive).

For the compound `COCc1[nH]nc2c1C(c1cccc(OC)c1)C(C#N)=C(N)O2` (centres undefined), the AC50 was > 38 µM (inactive).

As for `Cc1ccc2nc(N/N=C\c3ccc([N+](=O)[O-])o3)nc(-c3ccccc3)c2c1`, the AC50 was > 38 µM (inactive).

Regarding `Cc1noc(C)c1COC(=O)Cc1ccc(Br)cc1`, the AC50 was > 38 µM (inactive).

Consider `O=C(NC(NC(=S)Nc1ccc(Cl)cc1Cl)C(Cl)(Cl)Cl)c1cccc([N+](=O)[O-])c1` (centres undefined), for which the concentration at half-maximal activity (AC50) was 2.62 µM.

In the case of `O=C(CSc1ncnc2c1nnn2Cc1ccccc1F)N1CCN(c2ccccc2)CC1`, the AC50 was > 38 µM (inactive).

`O=C(CCN1C(=O)/C(=C/c2cccs2)SC1=S)Nc1cccc(O)c1`: the AC50 is > 38 µM (inactive).

On to `O=C(CS(=O)c1ccc(C(F)(F)F)cc1[N+](=O)[O-])Oc1ccccc1` (centres undefined), for which the AC50 is > 38 µM (inactive).

As for `COc1cc(C2NC(=O)C(C#N)=C(Nc3cccc(C)c3)S2)ccc1O` (centres undefined), the AC50 was 3.17 µM.

As to `CCN(CCN(C)C)C(=O)c1ccc2c(c1NCCO)C(=O)c1ccccc1C2=O`, the AC50 was > 38 µM (inactive).

For the compound `COc1cccc(NC(=O)c2nc(S(C)(=O)=O)ncc2Cl)c1`, the AC50 is > 38 µM (inactive).

Regarding `N#CC1=C(N)C(C#N)(C#N)C(c2cccnc2)C2CN(C(=O)OCc3ccccc3)CC=C12` (centres undefined), the AC50 was > 38 µM (inactive).

Take `CCc1oc2ccccc2c1C(=O)c1cc(Br)c(O)c(Br)c1`: the AC50 was 9.46 µM.

With `O=C1C=C(N2CCCCC2)c2ccccc2C1=O`, the AC50 was 10.4 µM.

`CC(=O)c1cccc(-c2ccc3c(=O)[nH]c(Nc4ccccc4)cc3c2)c1`: the AC50 was 6.06 µM.

`COc1ccc(C(=O)Nc2ccc(O)c3ccccc23)cc1`: the AC50 is 3.85 µM.

In the case of `C/C(CC(=O)Nc1cc(C)ccn1)=N\NC(=O)c1ccncc1`, the AC50 is 37.4 µM.

For `COc1cc(C2CC(c3cccs3)=NN2C(=O)CCl)ccc1OC(F)F` (centres undefined), the AC50 is > 38 µM (inactive).

With `CC(C)(C)C1CCc2sc(C(=O)NNC(=O)CCl)cc2C1` (centres undefined), the AC50 was 1.94 µM.

Regarding `CSc1ccc(C(c2c(C)[nH][nH]c2=O)c2c(C)[nH][nH]c2=O)cc1`, the AC50 was 7.2 µM.

As for `CC1=NN(c2ccccc2)C(=O)/C1=C/c1cccc(C)c1`, the AC50 was 4.14 µM.

As for `CCOC(=O)c1nn(-c2ccc(OC)cc2)c(=O)c2c(N)scc12`, the AC50 is > 38 µM (inactive).

With `Cc1ccc2c(c1)c1nnc(SCC(=O)Nc3ccc(N(C)C)cc3)nc1n2CC(=O)O`, the AC50 is > 38 µM (inactive).

For the origin of these results see PubChem BioAssay AID449750 (Broad Institute, 2010).
